Measurements from ChEMBL document CHEMBL1201862, “PubChem BioAssay data set” (2004).
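Briefly, cells in 96-well plates were exposed to five compound concentrations for 48 h, and endpoints were estimated by linear interpolation. The concentration for 50% growth inhibition is given as GI50.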 The source made the active and inactive calls. Rule as the data show it: active = GI50 up to about 1.1 µM and inactive = higher.

Legend:
Test in all cases: inhibition of tumour cell growth, NCI panel, 48 h
NCI-H226 = system: NCI-H226
SF-539 = system: SF-539
SNB-75 = system: SNB-75
A549 = system: A549
M14 = system: M14
HOP-92 = system: HOP-92
NCI-H460 = system: NCI-H460
SK-MEL-5 = system: SK-MEL-5
T47D = system: T47D
COLO 205 = system: COLO 205
OVCAR-4 = system: OVCAR-4
UACC-257 = system: UACC-257
PC-3 = system: PC-3
DU-145 = system: DU-145
Hs-578T = system: Hs-578T
SNB-19 = system: SNB-19
UO-31 = system: UO-31
ACHN = system: ACHN

Measured: GI50

COc1ccc(Nc2nc3ccc(C(F)(F)F)cc3nc2C(=O)O)cc1
inactive: NCI-H226 20.6 µM | SF-539 23.9 µM | SNB-75 34.1 µM | A549 29.4 µM | M14 36.4 µM | HOP-92 29.6 µM | NCI-H460 26 µM | SK-MEL-5 26.5 µM | T47D 33.4 µM | COLO 205 34.1 µM | OVCAR-4 47.8 µM | UACC-257 32.6 µM | PC-3 29.6 µM | DU-145 49.1 µM

Cc1cnc2sn(-c3ccc(Oc4ccccc4)cc3)c(=O)c2c1
inactive: Hs-578T 21.1 µM | NCI-H226 18.2 µM | SF-539 14 µM | SNB-75 17.9 µM | SNB-19 19.7 µM | A549 16.8 µM | M14 7.43 µM | NCI-H460 7.41 µM | SK-MEL-5 9.59 µM | T47D 14 µM | COLO 205 20.5 µM | OVCAR-4 17.9 µM | UACC-257 11.9 µM | PC-3 13.4 µM | DU-145 14.1 µM | UO-31 19.5 µM | ACHN 13.7 µM

C/C=C(\C)CC/C=C/CO[Si](C)(C)C(C)(C)C
inactive: Hs-578T > 100 µM | NCI-H226 > 100 µM | SF-539 > 100 µM | SNB-75 > 100 µM | SNB-19 > 100 µM | A549 39.4 µM | M14 > 100 µM | NCI-H460 > 100 µM | SK-MEL-5 > 100 µM | T47D > 100 µM | COLO 205 > 100 µM | OVCAR-4 > 100 µM | UACC-257 69 µM | PC-3 > 100 µM | DU-145 > 100 µM | UO-31 > 100 µM | ACHN > 100 µM

Cc1ccc(-c2cc(N)n(-c3nc4c([nH]3)c(=O)n(C)c(=O)n4C)n2)cc1
inactive: Hs-578T 23 µM | NCI-H226 6.71 µM | SF-539 4.24 µM | SNB-19 8.55 µM | A549 4.68 µM | M14 4.32 µM | HOP-92 12.8 µM | NCI-H460 1.71 µM | SK-MEL-5 3.36 µM | T47D 4.76 µM | COLO 205 3.62 µM | OVCAR-4 4.01 µM | UACC-257 15.3 µM | PC-3 16.3 µM | DU-145 6.35 µM | UO-31 2.78 µM | ACHN 1.92 µM

O=C1C=C(c2c(-c3ccccc3)[nH]c3ccccc23)C(=O)N1c1ccccc1
inactive: Hs-578T 4.15 µM | NCI-H226 22.6 µM | SF-539 8.24 µM | SNB-19 21.9 µM | A549 14.6 µM | M14 11.4 µM | HOP-92 9.14 µM | NCI-H460 14.6 µM | SK-MEL-5 8.75 µM | COLO 205 8.3 µM | UACC-257 9.25 µM | PC-3 7.78 µM | DU-145 3.52 µM | UO-31 13.9 µM | ACHN 13.9 µM

Nc1ccccc1/N=N/c1c(S(=O)(=O)O)cc2cc(S(=O)(=O)O)cc(O)c2c1O
inactive: Hs-578T > 100 µM | NCI-H226 > 100 µM | SNB-75 > 100 µM | SNB-19 > 100 µM | A549 > 100 µM | M14 > 100 µM | HOP-92 > 100 µM | SK-MEL-5 > 100 µM | T47D > 100 µM | COLO 205 > 100 µM | OVCAR-4 > 100 µM | UACC-257 > 100 µM | PC-3 > 100 µM | DU-145 > 100 µM | UO-31 > 100 µM | ACHN > 100 µM

CC(C)CCC[C@@H](C)[C@H]1CCC2C3CC=C4C[C@@H](Oc5c6ccccc6nc6ccccc56)CCC4C3CCC21 (stereo not given in full)
inactive: Hs-578T > 50 µM | NCI-H226 > 50 µM | SF-539 > 50 µM | SNB-19 > 50 µM | A549 > 50 µM | M14 > 50 µM | HOP-92 > 50 µM | NCI-H460 > 50 µM | SK-MEL-5 > 50 µM | T47D > 50 µM | COLO 205 > 50 µM | OVCAR-4 > 50 µM | UACC-257 > 50 µM | PC-3 > 50 µM | DU-145 > 50 µM | UO-31 25.6 µM | ACHN > 50 µM

Cc1c(C)c(C)n(C2OC(CO)C(O)C(O)C2O)c(=S)c1C#N (stereo not given)
inactive: NCI-H226 > 100 µM | SF-539 > 100 µM | SNB-75 > 100 µM | SNB-19 > 100 µM | A549 > 100 µM | M14 > 100 µM | HOP-92 > 100 µM | NCI-H460 > 100 µM | SK-MEL-5 > 100 µM | T47D > 100 µM | COLO 205 > 100 µM | OVCAR-4 > 100 µM | UACC-257 > 100 µM | PC-3 > 100 µM | DU-145 > 100 µM | UO-31 > 100 µM | ACHN > 100 µM
